Measured values taken from PubChem BioAssay (NCI).
Values joined by “and” are separate entries in the source; they are usually repeats but may differ in a detail not shown here. Identical values can stand only once.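 Grown in 96-well plates, cells were treated for 48 hours with each compound at five concentrations. Insufficient inhibition: endpoint recorded as highest concentration tested. GI50: concentration for 50% inhibition of growth. TGI marks complete inhibition of growth.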

Experiments:
Assay in all cases: inhibition of tumour cell growth, NCI panel, 48 h
DU-145 prostate = tested on: DU-145 prostate
HT29 colon = tested on: HT29 colon
K-562 leukemia = tested on: K-562 leukemia
LOX IMVI melanoma = tested on: LOX IMVI melanoma
NCI-H23 lung = tested on: NCI-H23 lung
NCI-H460 lung = tested on: NCI-H460 lung
SF-539 CNS = tested on: SF-539 CNS
SR leukemia = tested on: SR leukemia
U251 CNS = tested on: U251 CNS
OVCAR-4 ovarian = tested on: OVCAR-4 ovarian

Structure (SMILES) | TGI (DU-145 prostate) [µM] | TGI (HT29 colon) [µM] | TGI (K-562 leukemia) | TGI (LOX IMVI melanoma) | TGI (NCI-H23 lung) [µM] | TGI (NCI-H460 lung) | TGI (SF-539 CNS) | TGI (SR leukemia) | TGI (U251 CNS) | GI50 (DU-145 prostate) [µM] | GI50 (HT29 colon) [µM] | GI50 (LOX IMVI melanoma) [µM] | GI50 (NCI-H23 lung) [µM] | GI50 (NCI-H460 lung) [µM] | GI50 (OVCAR-4 ovarian) | TGI (OVCAR-4 ovarian) | GI50 (SF-539 CNS) [µM] | GI50 (SR leukemia) [µM] | GI50 (U251 CNS) [µM] | GI50 (K-562 leukemia) [µM]
O=C(O)C(=Cc1ccnc2ccccc12)C(=O)O | > 100 | > 100 | > 100 µM | > 100 µM | > 100 | > 100 µM | > 100 µM | > 100 µM | > 100 µM | – | – | – | – | – | – | – | – | – | – | –
O=Cc1c(-c2cc(O)ccc2O)nc2sccn12 | 49.2 | > 100 | – | 33.5 µM | 51.4 | 40.8 µM | 52 µM | 3.42 µM | 47 µM | 22.6 | 35.1 | 8.94 | 20.9 | 18 | 14.5 µM | 32.9 µM | 20.3 | 0.64 | 18.8 | –
C[C@]12CCC3[C@@H](C[C@@H]4SC(Nc5ccccc5)=N[C@@]45CC(=O)CC[C@]35C)[C@@H]1CCC2=O (some centres undefined) | 40.9 | 17.6 | > 100 µM | 10.8 µM | > 100 | 27.9 µM | 13.3 µM | > 100 µM | 19.3 µM | 4.34 | 3.9 | 3.22 | 18.1 | 4.65 | 18.9 µM | > 100 µM | 3.04 | 2.58 | 4.41 | 2.79
COc1ccc(/C=C/C(=O)c2cc3c(N)c(C(=O)Nc4ccccc4Cl)sc3nc2C)cc1 | > 50 | > 50 | > 50 µM | > 50 µM | > 50 | > 50 µM | 9.45 µM | > 50 µM | 29.6 µM | 2.78 | 1.98 | 8.11 | 4.58 | 2.2 | 1.7 µM | 46 µM | 2.04 | 3.77 | 3.36 | 2.49
Cc1c(N=Nc2ccc([N+](=O)[O-])cc2)nc2scc(-c3ccccc3)n12 | > 100 | > 100 | > 100 µM | > 100 µM | > 100 | > 100 µM | > 100 µM | 56.4 µM | > 100 µM | – | – | – | – | – | – | > 100 µM | – | – | – | –
OCc1cn(Cc2cccc(Cl)c2)c2ccccc12 | 47.8 | 34.3 | 31.9 µM | 25.8 µM | 43.5 | 17.9 µM | 30.9 µM | 44.1 µM | 22.6 µM | 11.6 | 1.83 | 6.71 | 13.3 | 0.0346 | 0.107 µM | 11.3 µM | 13.5 | 12.3 | 0.865 | 1.99
COc1c(O)c2c(c3cc(C(=O)N4CCc5c4c(O)c(OC)c4[nH]c(C(=O)N6CC7CC78C6=CC(=O)c6[nH]cc(C)c68)cc54)[nH]c13)CCN2C(N)=O (centres undefined) | > 100 | – | 21.8 µM and 0.0594 µg/mL | 2.61 nM and 287 nM and 0.00412 µg/mL | 0.00242 | 1.83 nM and 137 nM and 0.00377 µg/mL | 12.1 nM and 897 nM and 0.007 µg/mL | > 100 µM and 0.0804 µg/mL | 2.66 nM and 305 nM and 0.00324 µg/mL | – | 0.00254 | – | – | – | 420 nM and 0.0198 µg/mL | 2.91 µM and 0.0729 µg/mL | – | – | – | –
COP(=O)(OC)C(NC(c1ccccc1)c1ccccc1)c1ccc2c(c1)OCO2 (centres undefined) | 60.5 | 51.5 | 65 µM | 31.4 µM | 88.3 | 42 µM | 36 µM | 48.9 µM | > 100 µM | 26.6 | 19.9 | 16.4 | 31.5 | 20.1 | 30.5 µM | 89.9 µM | 20.2 | 24.4 | 30.8 | 20.7
C1CC[N-]CC1.C1CC[N-]CC1.C1CC[N-]CC1.C1CC[N-]CC1.[Cl][Rh][Cl] | 53.8 | 45.8 | – | > 100 µM | – | 26.5 µM | > 100 µM | 42 µM | 23.8 µM | 6.3 | 7.6 | 10.2 | – | 2.87 | 5.43 µM | > 100 µM | 5.15 | 4.75 | 4.72 | –
N#Cc1c(C(=O)c2ccccc2)cnn1-c1ccccc1 | > 25 | > 25 | > 25 µM | > 25 µM | > 25 | > 25 µM | > 25 µM | > 25 µM | > 25 µM | > 25 | > 25 | > 25 | > 25 | > 25 | > 25 µM | > 25 µM | > 25 | > 25 | > 25 | > 25
CSc1nc2c(c(=O)[nH]1)N=C1c3ccccc3C(=O)C1C(c1ccc(F)cc1)N2 (centres undefined) | 42.2 | 12.3 | > 100 µM | 30 µM | 55.9 | 38.7 µM | 29.4 µM | > 100 µM | 19.3 µM | 16.2 | 3.36 | 8.78 | 13.5 | 5.1 | 15.4 µM | 67 µM | 8.9 | 6.31 | 5.43 | 4.05
O=C(/C=C/c1ccc(OCC(=O)N2CCN(c3ccccc3)CC2)cc1)c1ccc(Cl)cc1 | > 100 | > 100 | > 100 µM | > 100 µM | > 100 | > 100 µM | 56.6 µM | > 100 µM | 46 µM | – | – | – | – | – | – | > 97.7 µM | – | – | – | –
CCCC[C@H]1C(=O)O[C@H](C)[C@H](NC(=O)c2cccc(NC=O)c2O)C(=O)O[C@@H](C)[C@@H]1OC(=O)CC(C)C | 40.7 | 27.4 | 57.7 µM | 19 µM | 31.2 | 27.4 µM | 31.8 µM | 38.3 µM | 21.9 µM | – | – | – | – | – | – | 63.4 µM | – | – | – | –
C=C1C(=O)O[C@H]2[C@H]1CC/C(COC(=O)NCc1cc3ccccc3[nH]1)=C\CC[C@@]1(C)O[C@@H]21 | 2.93 | 4.7 | 9.18 µM | 2.61 µM | 5.18 | 14.6 µM | 3.26 µM | 8.75 µM | 16.4 µM | 1.52 | 2.21 | 1.26 | 2.16 | 3.78 | 2.2 µM | 7.63 µM | 1.73 | 2.32 | 4.59 | 1.63
CC(C)(C)N1CCC1C(N)=O (centres undefined) | > 100 | > 100 | > 100 µM | > 100 µM | > 100 | > 100 µM | > 100 µM | > 100 µM | > 100 µM | > 100 | > 100 | > 100 | > 100 | > 100 | > 100 µM | > 100 µM | > 100 | > 100 | > 100 | > 100
C=C1[C@@H](C)[C@H]2[C@H](Cc3ccccc3)NC(=O)[C@]23OC(=O)/C=C/[C@H](O)CCC[C@@H](C)C/C=C/[C@H]3[C@@H]1O | > 100 | > 100 | > 100 µM | 39.6 µM | 89.7 | 57.8 µM | 43.8 µM | > 100 µM | 57.8 µM | – | – | – | – | – | – | > 100 µM | – | – | – | –
O=c1cc(C(F)(F)F)c2cc3c(cc2o1)NCCC3 | > 100 | > 100 | > 100 µM | > 100 µM | > 100 | > 100 µM | > 100 µM | > 100 µM | 63.4 µM | – | – | – | – | – | – | > 100 µM | – | – | – | –
Nc1ccccc1C#C/C=C\C#Cc1ccccc1C(F)(F)F | 14.7 | > 100 | 3.74 µM | 11.5 µM | 5.17 | > 40 µM | 3.55 µM | 0.691 µM | 15.7 µM | 2.7 | 3.58 | 0.441 | 0.397 | 1.53 | – | – | 0.669 | 0.247 | 0.621 | 1.07
O=c1cccc(C#CC#C[C@H]2O[C@@H]2CO)o1 | 3.24 | – | > 100 µM | 0.901 µM | 1.21 | 6.74 µM | 2.84 µM | > 100 µM | 0.958 µM | 1.56 | – | 0.31 | 0.347 | 1.08 | – | – | 1.07 | 0.24 | 0.355 | 0.182
COc1cc(Nc2nc3cc(N)cc(N)c3nc2-c2ccccc2)cc(OC)c1 | > 100 | > 100 | > 100 µM | 50.6 µM | > 100 | 52.8 µM | – | > 100 µM | > 100 µM | 22.7 | 27.3 | 15.2 | 27.5 | 7.91 | 17.8 µM | > 100 µM | – | 5.67 | 22.9 | 27.5
CCN(CC)c1ccc(/C=C\c2cc(C)c3cc(C)ccc3n2)cc1 | > 100 | 11.4 | – | > 100 µM | > 100 | 24.5 µM | 46.8 µM | > 100 µM | > 100 µM | 9.08 | 2.65 | 4.29 | 5.37 | 3.51 | 9.63 µM | > 100 µM | 3.79 | 3.41 | 5.35 | –
